According to patent US6949250B2, “Selective algaecides for control of cyanochloronta” (The United States of America as represented by the …, priority 2002, dated 2005):

How the values were obtained:
Oscillatoria perornata = test: DNA2-59-1 second pond efficacy study: O. perornata abundance; format: in vivo; conditions: 0.3 μM, within three days of application
Method: (§1) The method described by Schrader et al. (2000) was used to determine the potential for using the anthraquinone derivatives as selective algicides in catfish aquaculture ponds. All catfish ponds used in efficacy tests were maintained using commercial pond management practices and were located at the Thad Cochran Pond Facility, Mississippi State University, Stoneville, Miss. Anthraquinone analogs were dissolved in deionized water before application to water within the limnocorrals.
(§2) Limnocorrals in which test compound was applied to the enclosed water were randomly selected, and control (no test compound applied) limnocorrals were included in each efficacy study. For each sampling, two water samples (250 mL) were obtained from within each limnocorral (approximately 6-8 cm below the water surface and from opposite sides of each limnocorral) and mixed together in a 500 mL sample bottle to provide a representative sample of the water contained within the limnocorral.
(§3) In the second efficacy test with DNA2-59-1, six limnocorrals (1.53 m in diameter and 1.53 m high) were placed in a 0.1-ha earthen pond containing a heavy bloom of O. perornata. The same delay in mixing the water within the limnocorrals used in the first efficacy study was utilized. Water within three randomly selected limnocorrals received an application rate of 0.3 μM DNA2-59-1, and the other three limnocorrals were controls. […]

Oscillatoria geminata = test: DNA2-59-1 second pond efficacy study: Oscillatoria geminata abundance; format: in vivo; conditions: 0.3 μM
Method: as §1, §2, §3

Oscillatoria agardhii = test: DNA2-59-1 second pond efficacy study: Oscillatoria agardhii abundance; format: in vivo; conditions: 0.3 μM
Method: as §1, §2, §3

green algae = test: DNA2-59-1 second pond efficacy study: green algae abundance; format: in vivo; conditions: 0.3 μM
Method: as §1, §2, §3

diatoms = test: DNA2-59-1 second pond efficacy study: diatom abundance; format: in vivo, diatoms (division Chromophyta, class Bacillariophyceae); conditions: 0.3 μM
Method: as §1, §2, §3

[1] = DNA2-59-1 second efficacy study: dissipation rate and half-life in pond water (HPLC); format: physicochemical; conditions: for DNA2-59-1 Levels in Pond Water: second study, 0.3 μM applied
Method: In the second efficacy test with DNA2-59-1, six limnocorrals (1.53 m in diameter and 1.53 m high) were placed in a 0.1-ha earthen pond containing a heavy bloom of O. perornata. The same delay in mixing the water within the limnocorrals used in the first efficacy study was utilized. Water within three randomly selected limnocorrals received an application rate of 0.3 μM DNA2-59-1, and the other three limnocorrals were controls. Water samples were collected before application of DNA2-59-1, 20 minutes after application, and at days 1, 2, 3, and 7. The same tests and methods used in the first efficacy testing of DNA2-59-1 were used.
Approximately 15 mL each of water samples from DNA2-59-1 efficacy testing that were designated for HPLC analysis were placed in scintillation vials and held in a freezer. Water samples were later melted at room temperature, and 5 mL of each sample was then filtered through a nylon membrane filter (13 mm diameter and 0.45 μm; Whatman International, Maidstone, England) using a 5 mL syringe (Hamilton Company, Reno, Nev.) and a 13 mm syringe filter holder (Fisher Scientific Company, Pittsburgh, Pa.). Filtrate (1 mL) was placed in 2 mL vials and capped using teflon/rubber septum caps (National Scientific Company, Jeddah, Saudia Arabia). The filter paper was removed and placed in a scintillation vial to which 2 mL of HPLC grade methanol (Fisher Scientific, Fair Lawn, N.J.) was added and then sonicated for 5 minutes. The methanol solution was then filtered using a nylon membrane acrodisc (25 mm and 0.45 μm; Pall Life Sciences, Ann Arbor, Mich.), and the methanol filtrate was placed in separate 2 mL vials.
Filtrate samples were analyzed using a Waters 2690 Alliance HPLC containing a 996 PDA detector and a XTerra RP 18 column (150 mm×4.6 mm, 5 μm particle size; Waters Corporation, Milford, Mass.). The mobile phase consisted of 25 mM sodium dihydrogenphosphate in 0.1% phosphoric acid (A) and acetonitrile (B). The gradient was from 80A/20B in 15 minutes to 40A/60B. After each run, a 5 minute wash with methanol was performed, followed by equilibrating the column for 10 minutes with 80A/20B. The temperature was set at 40° C., the flow rate was 1 mL/minute, the detection wavelength 256 nm, and the sample injection volume was 10 μL. All solvents used were HPLC grade (Fisher Scientific, Fair Lawn, N.J.).
Means and standard deviations of data were determined and graphed. The graphs were used to help determine the half-life of DNA2-59-1 in the pond water. Because of the short duration of the first efficacy study, the half-life of DNA2-59-1 in the pond water could not be determined.

2-methylisoborneol [2] = test: DNA2-59-1 third pond efficacy study: MIB levels; format: in vivo; conditions: 0.3 μM, 24 hours after application
Method: as §1, §2
(§4) For the third efficacy test with DNA2-59-1, twelve limnocorrals (2.44 m in diameter and 1.53 m high) were placed in a 4-ha earthen pond containing a bloom of O. perornata. […]

Cylindrospermopsis spp. = test: DNA2-59-1 third pond efficacy study: Cylindrospermopsis spp. abundance; format: in vivo; conditions: 0.3 μM, one day after application
Method: as §1, §2, §4

chlorophyll a = test: DNA1-19-1 first pond efficacy study (limnocorrals): chlorophyll a; format: in vivo; conditions: 2 μM, within 24 hours
O. perornata = test: DNA1-19-1 second and third pond efficacy studies: O. perornata filaments; format: in vivo, Oscillatoria perornata; conditions: second and third efficacy study; 1, 0.3, and 0.1 μM
Method: as §1, §2
(§5) In the second study with DNA1-19-1, twelve limnocorrals that were the same size as those used in the first study were placed in another 4-ha earthen catfish pond. […] The sampling regime and procedures used in the first study were followed in a similar manner, except that water samples were obtained before DNA1-19-1 application, 16 hours after application, and at days 2, 4, and 7. […]

2-methylisoborneol [3] = test: DNA1-19-1 second and third pond efficacy studies: MIB levels; format: in vivo; conditions: second and third efficacy study; 1, 0.3, and 0.1 μM
Method: as §1, §2, §5

Structure (SMILES) | Numbers of O. perornata (result in words) (Oscillatoria perornata) | Numbers of Oscillatoria geminata (result in words) (Oscillatoria geminata) | Numbers of Oscillatoria agardhii (result in words) (Oscillatoria agardhii) | Green algae (result in words) (green algae) | diatoms (result in words) (diatoms) | half-life at 0.3 μM ([1]; pond water in limnocorrals (earthen catfish pond), second efficacy study) [h] | DNA2-59-1 Levels in Pond Water ([1]; 0 hours) [µg/L] | DNA2-59-1 Levels in Pond Water ([1]; 24 hours) [µg/L] | DNA2-59-1 Levels in Pond Water ([1]; 48 hours) [µg/L] | DNA2-59-1 Levels in Pond Water ([1]; 72 hours) [µg/L] | DNA2-59-1 Levels in Pond Water ([1]; 168 hours) [µg/L] | Levels of 2-methylisoborneol (result in words) (2-methylisoborneol [2]) | Numbers of Cylindrospermopsis spp. (result in words) (Cylindrospermopsis spp.) | Chlorophyll a levels (result in words) (chlorophyll a) | numbers of O. perornata filaments compared to controls (result in words) (O. perornata) | 2-methylisoborneol levels compared to controls (result in words) (2-methylisoborneol [3])
CC(C)NCc1ccc2c(c1)C(=O)c1ccccc1C2=O [DNA2-59-1, 2-[methylamino-N-(1′-methylethyl)]-9,10-anthraquinone monophosphate] | significantly and dramatically reduced | reduced by application of 0.3 μM DNA2-59-1, though not significantly | not affected | not significantly affected | not significantly affected | 19 | 94.8 ± 11.5 | 36.1 ± 4.5 | 16.3 ± 0.4 | 7.6 ± 0.7 | 0 | significantly reduced | significantly reduced | – | – | –
CCN(CC)CCCC(C)NCc1ccc2c(c1)C(=O)c1ccccc1C2=O.O=P(O)(O)O.O=P(O)(O)O (stereo not shown) [DNA1-19-1, 2-[methylamino-N-(1′-methyl-4′-N,N-diethylaminobutyl)]-9,10-anthraquinone diphosphate] | – | – | – | – | – | – | – | – | – | – | – | – | – | decreased significantly | lack of reduction | lack of reduction
